Data on 30 molecules can be found in patent US20210317134A1, “UBIQUITIN-SPECIFIC-PROCESSING PROTEASE 7 (USP7) MODULATORS AND USES THEREOF” (RAPT THERAPEUTICS, INC., priority 2019, published 2021).

SMILES strings stand for the structures.

The target of the experiment is USP7 (Homo sapiens, UniProt Q93009). As to the kind of experiment: USP7 inhibitory potency (Table 1). The experiment is classed as biochemical.
Chain of USP7 (Q93009 whole entry): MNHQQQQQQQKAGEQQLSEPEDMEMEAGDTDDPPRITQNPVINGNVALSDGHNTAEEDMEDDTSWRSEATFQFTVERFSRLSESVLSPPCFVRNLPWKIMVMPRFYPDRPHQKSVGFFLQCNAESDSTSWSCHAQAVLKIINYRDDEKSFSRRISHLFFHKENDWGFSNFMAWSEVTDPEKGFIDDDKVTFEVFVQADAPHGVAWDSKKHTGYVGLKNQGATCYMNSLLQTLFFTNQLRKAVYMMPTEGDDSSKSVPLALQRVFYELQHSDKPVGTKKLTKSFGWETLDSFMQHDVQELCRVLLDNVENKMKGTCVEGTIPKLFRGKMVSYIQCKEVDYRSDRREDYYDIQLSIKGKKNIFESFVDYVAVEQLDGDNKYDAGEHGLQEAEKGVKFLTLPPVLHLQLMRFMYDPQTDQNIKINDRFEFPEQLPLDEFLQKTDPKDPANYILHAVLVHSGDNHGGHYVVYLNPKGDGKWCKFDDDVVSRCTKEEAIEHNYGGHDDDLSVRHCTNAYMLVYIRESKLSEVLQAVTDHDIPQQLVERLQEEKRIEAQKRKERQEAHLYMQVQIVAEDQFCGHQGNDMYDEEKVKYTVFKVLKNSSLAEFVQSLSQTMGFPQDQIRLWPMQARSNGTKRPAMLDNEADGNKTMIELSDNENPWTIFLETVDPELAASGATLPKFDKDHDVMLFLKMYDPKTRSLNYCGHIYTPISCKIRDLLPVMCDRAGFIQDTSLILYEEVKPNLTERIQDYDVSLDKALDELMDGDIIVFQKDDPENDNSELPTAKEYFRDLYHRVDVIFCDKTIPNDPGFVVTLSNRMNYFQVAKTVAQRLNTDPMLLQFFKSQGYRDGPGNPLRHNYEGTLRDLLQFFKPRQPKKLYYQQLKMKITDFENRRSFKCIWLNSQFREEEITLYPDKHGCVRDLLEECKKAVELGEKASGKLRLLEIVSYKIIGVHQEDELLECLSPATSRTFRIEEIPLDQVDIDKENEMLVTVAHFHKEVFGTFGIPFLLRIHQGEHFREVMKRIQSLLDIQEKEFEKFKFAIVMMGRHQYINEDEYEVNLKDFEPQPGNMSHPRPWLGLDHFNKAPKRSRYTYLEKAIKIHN
The term IC50 denotes the midpoint of a concentration-inhibition curve. `CN[C@@H]1CCCN(C(=O)[C@H]2Cc3cc(Cl)cc(-c4ccnc5ccsc45)c3O2)C1` [((R)-5-chloro-7-(thieno[3,2-b]pyridin-7-yl)-2,3-dihydrobenzofuran-2-yl)((R)-3-(methylamino)piperidin-1-yl)methanone] returned an IC50 of 10000 to 30000 nM.
`CN(C)[C@H]1CCN(C(=O)[C@H]2Cc3cc(Cl)cc(-c4ccnc5ccsc45)c3O2)C1` [((R)-5-chloro-7-(thieno[3,2-b]pyridin-7-yl)-2,3-dihydrobenzofuran-2-yl)((S)-3-(dimethylamino)pyrrolidin-1-yl)methanone] registered a 50% inhibitory concentration (IC50) of 1000 to 10000 nM.
The value for `CN[C@H]1CCCN(C(=O)[C@H]2Cc3cc(Cl)cc(-c4ccnc5ccsc45)c3O2)C1` [((R)-5-chloro-7-(thieno[3,2-b]pyridin-7-yl)-2,3-dihydrobenzofuran-2-yl)((S)-3-(methylamino)piperidin-1-yl)methanone] was less than 1000 nM.
In the case of `O=C([C@H]1Cc2cc(Cl)cc(-c3ccnc4ccsc34)c2O1)N1CCN2CCCC2C1` (stereo partly drawn) [((R)-5-chloro-7-(thieno[3,2-b]pyridin-7-yl)-2,3-dihydrobenzofuran-2-yl)(hexahydropyrrolo[1,2-a]pyrazin-2(1H)-yl)methanone] it was 1000 to 10000 nM.
`O=C([C@H]1Cc2cc(Cl)cc(-c3ccnc4cc(CCN5C(=O)CCC5=O)sc34)c2O1)N1CCNCC1` [(R)-1-(2-(7-(5-chloro-2-(piperazine-1-carbonyl)-2,3-dihydrobenzofuran-7-yl)thieno[3,2-b]pyridin-2-yl)ethyl)pyrrolidine-2,5-dione] yielded an IC50 of less than 1000 nM.
As to `O=C([C@H]1Cc2cc(Cl)cc(-c3ccnc4cc(N5C(=O)CCC5=O)ccc34)c2O1)N1CCNCC1` [(R)-1-(4-(5-chloro-2-(piperazine-1-carbonyl)-2,3-dihydrobenzofuran-7-yl)quinolin-7-yl)pyrrolidine-2,5-dione], the IC50 was less than 1000 nM.
The value for `CC[C@@H](O)c1cc2ncnc(-c3cc(Cl)cc4c3O[C@@H](c3onc5c3CNCC5)C4)c2s1` [(R)-1-(4-((R)-5-chloro-2-(4,5,6,7-tetrahydroisoxazolo[4,3-c]pyridin-3-yl)-2,3-dihydrobenzofuran-7-yl)thieno[3,2-d]pyrimidin-6-yl)propan-1-ol] was less than 1000 nM.
As for `CN(C)Cc1ncoc1[C@H]1Cc2cc(Cl)cc(-c3ccnc4ccsc34)c2O1` [(R)-1-(5-(5-chloro-7-(thieno[3,2-b]pyridin-7-yl)-2,3-dihydrobenzofuran-2-yl)oxazol-4-yl)-N,N-dimethylmethanamine], the IC50 is less than 1000 nM.
`CN(C)Cc1ncoc1[C@H]1Cc2cc(Cl)cc(-c3ncnc4ccsc34)c2O1` [(R)-1-(5-(5-chloro-7-(thieno[3,2-d]pyrimidin-4-yl)-2,3-dihydrobenzofuran-2-yl)oxazol-4-yl)-N,N-dimethylmethanamine]: the IC50 lay in the range of 1000 to 10000 nM.
Regarding `OC1(c2cc3nccc(-c4cc(Cl)cc5c4O[C@@H](c4onc6c4CNCC6)C5)c3s2)CCC1` [(R)-1-(7-(5-chloro-2-(4,5,6,7-tetrahydroisoxazolo[4,3-c]pyridin-3-yl)-2,3-dihydrobenzofuran-7-yl)thieno[3,2-b]pyridin-2-yl)cyclobutan-1-ol], the IC50 was less than 1000 nM.
`CC[C@@H](O)c1cc2nccc(-c3cc(Cl)cc4c3O[C@@H](c3onc5c3CNCC5)C4)c2s1` [(R)-1-(7-((R)-5-chloro-2-(4,5,6,7-tetrahydroisoxazolo[4,3-c]pyridin-3-yl)-2,3-dihydrobenzofuran-7-yl)thieno[3,2-b]pyridin-2-yl)propan-1-ol] showed an IC50 of less than 1000 nM.
In turn, `CC[C@@H](O)c1cc2nccc(-c3cc(Cl)cc4c3O[C@@](C)(c3onc5c3CNCC5)C4)c2s1` [(R)-1-(7-((R)-5-chloro-2-methyl-2-(4,5,6,7-tetrahydroisoxazolo[4,3-c]pyridin-3-yl)-2,3-dihydrobenzofuran-7-yl)thieno[3,2-b]pyridin-2-yl)propan-1-ol] gave an IC50 of less than 1000 nM.
The molecule `CC[C@@H](O)c1cc2nccc(-c3cc(Cl)cc4c3O[C@](C)(c3onc5c3CNCC5)C4)c2s1` [(R)-1-(7-((S)-5-chloro-2-methyl-2-(4,5,6,7-tetrahydroisoxazolo[4,3-c]pyridin-3-yl)-2,3-dihydrobenzofuran-7-yl)thieno[3,2-b]pyridin-2-yl)propan-1-ol] showed a 50% inhibitory concentration (IC50) of less than 1000 nM.
`O=C1CCC(=O)N1Cc1cc2ncnc(-c3cc(Cl)cc4c3O[C@@H](c3onc5c3CNCC5)C4)c2o1` [(R)-1-((4-(5-chloro-2-(4,5,6,7-tetrahydroisoxazolo[4,3-c]pyridin-3-yl)-2,3-dihydrobenzofuran-7-yl)furo[3,2-d]pyrimidin-6-yl)methyl)pyrrolidine-2,5-dione] yielded a half-inhibitory concentration (IC50) of less than 1000 nM.
Take `O=C1CCC(=O)N1Cc1ccc2c(-c3cc(Cl)cc4c3O[C@@H](c3onc5c3CNCC5)C4)ccnc2c1` [(R)-1-((4-(5-chloro-2-(4,5,6,7-tetrahydroisoxazolo[4,3-c]pyridin-3-yl)-2,3-dihydrobenzofuran-7-yl)quinolin-7-yl)methyl)pyrrolidine-2,5-dione]: the half-inhibitory concentration (IC50) is 1000 to 10000 nM.
`O=C1CCC(=O)N1Cc1cc2ncnc(-c3cc(Cl)cc4c3O[C@@H](c3onc5c3CNCC5)C4)c2s1` [(R)-1-((4-(5-chloro-2-(4,5,6,7-tetrahydroisoxazolo[4,3-c]pyridin-3-yl)-2,3-dihydrobenzofuran-7-yl)thieno[3,2-d]pyrimidin-6-yl)methyl)pyrrolidine-2,5-dione] came in with a half-maximal inhibitory concentration (IC50) of less than 1000 nM.
For the molecule `O=C([C@H]1Cc2cc(Cl)cc(-c3ncnc4cc(CN5C(=O)CCC5=O)oc34)c2O1)N1CCNCC1` [(R)-1-((4-(5-chloro-2-(piperazine-1-carbonyl)-2,3-dihydrobenzofuran-7-yl)furo[3,2-d]pyrimidin-6-yl)methyl)pyrrolidine-2,5-dione], the IC50 was less than 1000 nM.
The value for `O=C([C@H]1Cc2cc(Cl)cc(-c3ccnc4cc(CN5C(=O)CCC5=O)ccc34)c2O1)N1CCNCC1` [(R)-1-((4-(5-chloro-2-(piperazine-1-carbonyl)-2,3-dihydrobenzofuran-7-yl)quinolin-7-yl)methyl)pyrrolidine-2,5-dione] was less than 1000 nM; that for `O=C([C@H]1Cc2cc(Cl)cc(-c3ncnc4cc(CN5C(=O)CCC5=O)sc34)c2O1)N1CCNCC1` [(R)-1-((4-(5-chloro-2-(piperazine-1-carbonyl)-2,3-dihydrobenzofuran-7-yl)thieno[3,2-d]pyrimidin-6-yl)methyl)pyrrolidine-2,5-dione] was less than 1000 nM; that for `Cn1nc2c(c1[C@H]1Cc3cc(Cl)cc(-c4ccnc5cc(CN6C(=O)CCC6=O)sc45)c3O1)CNCC2` [(R)-1-((7-(5-chloro-2-(2-methyl-4,5,6,7-tetrahydro-2H-pyrazolo[4,3-c]pyridin-3-yl)-2,3-dihydrobenzofuran-7-yl)thieno[3,2-b]pyridin-2-yl)methyl)pyrrolidine-2,5-dione] was less than 1000 nM.
With `O=C1CCC(=O)N1Cc1cc2nccc(-c3cc(Cl)cc4c3O[C@@H](c3onc5c3CNCC5)C4)n2n1` [(R)-1-((7-(5-chloro-2-(4,5,6,7-tetrahydroisoxazolo[4,3-c]pyridin-3-yl)-2,3-dihydrobenzofuran-7-yl)pyrazolo[1,5-a]pyrimidin-2-yl)methyl)pyrrolidine-2,5-dione], the IC50 was less than 1000 nM.
The value for `O=C1CCC(=O)N1Cc1cc2nccc(-c3cc(Cl)cc4c3O[C@@H](c3onc5c3CNCC5)C4)c2s1` [(R)-1-((7-(5-chloro-2-(4,5,6,7-tetrahydroisoxazolo[4,3-c]pyridin-3-yl)-2,3-dihydrobenzofuran-7-yl)thieno[3,2-b]pyridin-2-yl)methyl)pyrrolidine-2,5-dione] was less than 1000 nM; that for `COc1ccc(CN2C(=O)CN(Cc3cc4nccc(-c5cc(Cl)cc6c5O[C@@H](C(=O)N5CCNCC5)C6)c4s3)C2=O)cc1` [(R)-1-((7-(5-chloro-2-(piperazine-1-carbonyl)-2,3-dihydrobenzofuran-7-yl)thieno[3,2-b]pyridin-2-yl)methyl)-3-(4-methoxybenzyl)imidazolidine-2,4-dione] was less than 1000 nM.
The molecule `CN1CCN(Cc2cc3nccc(-c4cc(Cl)cc5c4O[C@@H](C(=O)N4CCNCC4)C5)c3s2)C1=O` [(R)-1-((7-(5-chloro-2-(piperazine-1-carbonyl)-2,3-dihydrobenzofuran-7-yl)thieno[3,2-b]pyridin-2-yl)methyl)-3-methylimidazolidin-2-one] gave an IC50 of less than 1000 nM.
As for `O=C1CN(Cc2cc3nccc(-c4cc(Cl)cc5c4O[C@@H](C(=O)N4CCNCC4)C5)c3s2)C(=O)N1` [(R)-1-((7-(5-chloro-2-(piperazine-1-carbonyl)-2,3-dihydrobenzofuran-7-yl)thieno[3,2-b]pyridin-2-yl)methyl)imidazolidine-2,4-dione], the IC50 was less than 1000 nM.
For the molecule `O=C([C@H]1Cc2cc(Cl)cc(-c3ccnc4cc(CN5C(=O)CCCC5=O)sc34)c2O1)N1CCNCC1` [(R)-1-((7-(5-chloro-2-(piperazine-1-carbonyl)-2,3-dihydrobenzofuran-7-yl)thieno[3,2-b]pyridin-2-yl)methyl)piperidine-2,6-dione], the concentration for half-maximal inhibition (IC50) is less than 1000 nM.
`O=C1CCCN1Cc1cc2nccc(-c3cc(Cl)cc4c3O[C@@H](C(=O)N3CCNCC3)C4)c2s1` [(R)-1-((7-(5-chloro-2-(piperazine-1-carbonyl)-2,3-dihydrobenzofuran-7-yl)thieno[3,2-b]pyridin-2-yl)methyl)pyrrolidin-2-one] registered an IC50 of less than 1000 nM.
`C[C@@H]1CCN(Cc2cc3nccc(-c4cc(Cl)cc5c4O[C@@H](C(=O)N4CCNCC4)C5)c3s2)C1=O` [(R)-1-((7-((R)-5-chloro-2-(piperazine-1-carbonyl)-2,3-dihydrobenzofuran-7-yl)thieno[3,2-b]pyridin-2-yl)methyl)-3-methylpyrrolidin-2-one] displayed an IC50 of less than 1000 nM.
Turning to `O=C([C@H]1Cc2cc(Cl)cc(-c3ccnc4cc(CCN5C(=O)c6ccccc6C5=O)sc34)c2O1)N1CCNCC1` [(R)-2-(2-(7-(5-chloro-2-(piperazine-1-carbonyl)-2,3-dihydrobenzofuran-7-yl)thieno[3,2-b]pyridin-2-yl)ethyl)isoindoline-1,3-dione], the IC50 is less than 1000 nM.
In turn, `OCCN1CCc2noc([C@H]3Cc4cc(Cl)cc(-c5ncnc6ccoc56)c4O3)c2C1` [(R)-2-(3-(5-chloro-7-(furo[3,2-d]pyrimidin-4-yl)-2,3-dihydrobenzofuran-2-yl)-6,7-dihydroisoxazolo[4,3-c]pyridin-5(4H)-yl)ethan-1-ol] displayed an IC50 of 1000 to 10000 nM.
